Data from PubChem BioAssay AID1919017 (Molecular Pharmacology Branch, DTP, NCI, 2023).
pIC50: −log10 of the molar value.

Tested on: SW1271 complex spheroids with HUVEC/MSC, growth, % test/control
Test: Anticancer human tumor SW1271 cell line growth inhibition [AhR];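 note: spheroids exposed to agents for 7 days before readout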
Conditions: for pIC50: curve of first compound; for viability, T/C: stronger effect = lower value
Summary of the method: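 Agents were dosed in half-log steps down from roughly clinical Cmax, or from 10 microM where Cmax was unknown, alone and with AhR antagonists. Read-out: percent test/control growth of tumor spheroids containing HUVEC and MSC stromal cells.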

[1] = second compound 0.1 µM, first compound 0.0316 µM
[2] = second compound 0.1 µM, first compound 0.1 µM
[3] = second compound 0.1 µM, first compound 0.316 µM
[4] = second compound 0.1 µM, first compound 1 µM
[5] = second compound 0.1 µM, first compound 3.16 µM
[6] = second compound 0.1 µM, first compound 10 µM
[7] = second compound 0.316 µM, first compound 0.0316 µM
[8] = second compound 0.316 µM, first compound 0.1 µM
[9] = second compound 0.316 µM, first compound 0.316 µM
[10] = second compound 0.316 µM, first compound 1 µM
[11] = second compound 0.316 µM, first compound 3.16 µM
[12] = second compound 0.316 µM, first compound 10 µM
[13] = second compound 1 µM, first compound 0.0316 µM
[14] = second compound 1 µM, first compound 0.1 µM
[15] = second compound 1 µM, first compound 0.316 µM
[16] = second compound 1 µM, first compound 1 µM
[17] = second compound 1 µM, first compound 3.16 µM
[18] = second compound 1 µM, first compound 10 µM
[19] = second compound 3.16 µM, first compound 0.0316 µM
[20] = second compound 3.16 µM, first compound 0.1 µM
[21] = second compound 3.16 µM, first compound 0.316 µM
[22] = second compound 3.16 µM, first compound 1 µM
[23] = second compound 3.16 µM, first compound 3.16 µM
[24] = second compound 3.16 µM, first compound 10 µM
[25] = second compound 10 µM, first compound 0.0316 µM
[26] = second compound 10 µM, first compound 0.1 µM
[27] = second compound 10 µM, first compound 0.316 µM
[28] = second compound 10 µM, first compound 1 µM
[29] = second compound 10 µM, first compound 3.16 µM
[30] = second compound 10 µM, first compound 10 µM

Row | Structure (SMILES) | pIC50 (second compound 0.1 µM) | pIC50 (second compound 0.316 µM) | pIC50 (second compound 1 µM) | pIC50 (second compound 3.16 µM) | pIC50 (second compound 10 µM) | viability, T/C [1] | viability, T/C [2] | viability, T/C [3] | viability, T/C [4] | viability, T/C [5] | viability, T/C [6] | viability, T/C [7] | viability, T/C [8] | viability, T/C [9] | viability, T/C [10] | viability, T/C [11] | viability, T/C [12] | viability, T/C [13] | viability, T/C [14] | viability, T/C [15] | other results
1 | Nc1ccn(C2OC(CO)C(O)C2(F)F)c(=O)n1 (stereo not given) + Cc1cncc(-c2nc(NCCc3c[nH]c4ccccc34)c3ncn(C(C)C)c3n2)c1 | < 5.00 | < 5.00 | < 5.00 | < 5.00 | > 7.50 | 75.4% | 97.1% | 67% | 64% | 62.7% | 54.6% | 60.5% | 65.8% | 68% | 64.3% | 66.9% | 56.8% | 74.2% | 72.8% | 85.4% | viability, T/C [16]: 65%; viability, T/C [17]: 67.8%; viability, T/C [18]: 58.4%; viability, T/C [19]: 81.1%; viability, T/C [20]: 78.6%; viability, T/C [21]: 103%; viability, T/C [22]: 65%; viability, T/C [23]: 81.8%; viability, T/C [24]: 75.2%; viability, T/C [25]: 39.5%; viability, T/C [26]: 38.2%; viability, T/C [27]: 39.3%; viability, T/C [28]: 36.7%; viability, T/C [29]: 37.8%; viability, T/C [30]: 30.6%
2 | O=C(c1cc(Cc2n[nH]c(=O)c3ccccc23)ccc1F)N1CCN(C(=O)C2CC2)CC1 + Cc1cncc(-c2nc(NCCc3c[nH]c4ccccc34)c3ncn(C(C)C)c3n2)c1 | < 5.00 | < 5.00 | < 5.00 | < 5.00 | > 7.50 | 74.1% | 75.8% | 83.6% | 75.6% | 102% | 100% | 84.9% | 94.2% | 95.5% | 83.7% | 90.2% | 91.4% | 84.9% | 91.2% | 79.3% | viability, T/C [16]: 80.2%; viability, T/C [17]: 81.7%; viability, T/C [18]: 75.8%; viability, T/C [19]: 90.7%; viability, T/C [20]: 78.7%; viability, T/C [21]: 96.6%; viability, T/C [22]: 75.6%; viability, T/C [23]: 62.9%; viability, T/C [24]: 80.1%; viability, T/C [25]: 50.1%; viability, T/C [26]: 46.4%; viability, T/C [27]: 46.4%; viability, T/C [28]: 33.3%; viability, T/C [29]: 44.9%; viability, T/C [30]: 34.7%
